Source: ChEMBL document CHEMBL1909046, “DrugMatrix in vitro pharmacology data”

Experiments:
[1] = DRUGMATRIX: Sigma2 radioligand binding (ligand: [3H] Ifenprodil); format: cell membranes, Rattus norvegicus, Wistar, Brain, Membrane; details: Not Active = under 50% inhibition at 10 µM
[2] = biological target: 5-hydroxytryptamine receptor 6 (Homo sapiens, UniProt P50406); format: cell membranes, HeLa, Membrane; details: for Ki: read-out: Ki; as to all read-outs here: in other assays of this panel Not Active means under 50% inhibition at 10 µM
5-hydroxytryptamine receptor 6, sequence (P50406 whole entry): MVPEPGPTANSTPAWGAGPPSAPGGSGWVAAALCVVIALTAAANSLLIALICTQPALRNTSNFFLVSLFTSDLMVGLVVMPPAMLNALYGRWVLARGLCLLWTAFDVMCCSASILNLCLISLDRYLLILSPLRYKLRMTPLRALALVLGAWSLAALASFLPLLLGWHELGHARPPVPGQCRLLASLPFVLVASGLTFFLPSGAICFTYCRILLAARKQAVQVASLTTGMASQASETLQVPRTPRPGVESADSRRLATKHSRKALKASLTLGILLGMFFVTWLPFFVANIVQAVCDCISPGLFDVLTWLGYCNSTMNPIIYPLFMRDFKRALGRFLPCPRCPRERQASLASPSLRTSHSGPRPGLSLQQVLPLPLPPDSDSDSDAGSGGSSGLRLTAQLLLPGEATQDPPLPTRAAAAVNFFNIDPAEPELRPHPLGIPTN

[3] = DRUGMATRIX: Potassium Channel [KATP] radioligand binding (ligand: [3H] Glyburide); format: cell membranes, Membrane; details: hit-t15; Not Active = under 50% inhibition at 10 µM
[4] = biological target: Protein kinase C alpha type (Homo sapiens, UniProt P17252); format: cell-based; details: sf9;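 also: inhibition of PKCalpha kinase activity measured in an enzyme assay with histone as the phosphorylation substrate; in other assays of this panel Not Active means under 50% inhibition at 10 µM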
[5] = DRUGMATRIX: Calcium Channel Type L, Dihydropyridine radioligand binding (ligand: [3H] Nitrendipine); format: cell membranes, Rattus norvegicus, Wistar, Cerebral cortex, Membrane; details: Not Active = under 50% inhibition at 10 µM

Row | SMILES | IC50 [1] | Ki [1] | IC50 ([2]; hela) | IC50 [3] | Ki [3] | IC50 [4] | IC50 [5] | Ki [5] | IC50 ([2]; read-out: IC50) [nM] | Ki [2] [nM] | IC50 ([5]; read-out: IC50) [µM] | Ki ([5]; read-out: Ki) [µM] | IC50 ([1]; read-out: IC50) [nM] | Ki ([1]; read-out: Ki) [nM]
1 | CC[C@H]1OC(=O)[C@H](C)[C@@H](O[C@H]2C[C@@](C)(OC)[C@@H](O)[C@H](C)O2)[C@H](C)[C@@H](O[C@@H]2O[C@H](C)C[C@H](N(C)C)[C@H]2O)[C@](C)(O)C[C@@H](C)CN(C)[C@H](C)[C@@H](O)[C@]1(C)O [AZITHROMYCIN] | Not Active | Not Active | Not Active | Not Active | Not Active | Not Active | Not Active | Not Active | – | – | – | – | – | –
2 | CC(C)(C)c1ccc(S(=O)(=O)/C=C/C#N)cc1 [BAY-11-7085] | Not Active | Not Active | Not Active | Not Active | Not Active | Not Active | Not Active | Not Active | – | – | – | – | – | –
3 | CCc1oc2ccccc2c1C(=O)c1cc(Br)c(O)c(Br)c1 [BENZBROMARONE] | Not Active | Not Active | Not Active | Not Active | Not Active | Not Active | Not Active | Not Active | – | – | – | – | – | –
4 | O=c1cc(-c2ccccc2)oc2ccc3ccccc3c12 [BETA-NAPHTHOFLAVONE] | Not Active | Not Active | Not Active | Not Active | Not Active | Not Active | Not Active | Not Active | – | – | – | – | – | –
5 | CC(C)C[C@H]1C(=O)N2CCC[C@H]2[C@]2(O)O[C@](NC(=O)[C@@H]3C=C4c5cccc6[nH]c(Br)c(c56)C[C@H]4N(C)C3)(C(C)C)C(=O)N12 [BROMOCRIPTINE] | Not Active | Not Active | – | Not Active | Not Active | Not Active | Not Active | Not Active | 22 | 10 | – | – | – | –
6 | CS(=O)(=O)OCCCCOS(C)(=O)=O [BUSULFAN] | Not Active | Not Active | Not Active | Not Active | Not Active | Not Active | Not Active | Not Active | – | – | – | – | – | –
7 | O=C(/C=C/c1ccc(O)c(O)c1)OCCc1ccccc1 [CAFFEIC ACID PHENETHYL ESTER] | Not Active | Not Active | Not Active | Not Active | Not Active | Not Active | Not Active | Not Active | – | – | – | – | – | –
8 | COc1cc(CNC(=O)CCCC/C=C/C(C)C)ccc1O [CAPSAICIN] | Not Active | Not Active | Not Active | Not Active | Not Active | Not Active | Not Active | Not Active | – | – | – | – | – | –
9 | NC(=O)N1c2ccccc2C=Cc2ccccc21 [CARBAMAZEPINE] | Not Active | Not Active | Not Active | Not Active | Not Active | Not Active | Not Active | Not Active | – | – | – | – | – | –
10 | CCOC(=O)n1ccn(C)c1=S [CARBIMAZOLE] | Not Active | Not Active | Not Active | Not Active | Not Active | Not Active | Not Active | Not Active | – | – | – | – | – | –
11 | Oc1ccccc1O [CATECHOL] | Not Active | Not Active | Not Active | Not Active | Not Active | Not Active | Not Active | Not Active | – | – | – | – | – | –
12 | CO[C@@]1(NC(=O)CSCC#N)C(=O)N2C(C(=O)O)=C(CSc3nnnn3C)CS[C@@H]21 [CEFMETAZOLE] | Not Active | Not Active | Not Active | Not Active | Not Active | Not Active | Not Active | Not Active | – | – | – | – | – | –
13 | CN(C(=O)CCCOc1ccc2[nH]c(=O)ccc2c1)C1CCCCC1 [CILOSTAMIDE] | Not Active | Not Active | Not Active | Not Active | Not Active | Not Active | Not Active | Not Active | – | – | – | – | – | –
14 | CC(C)(Oc1ccc(C2CC2(Cl)Cl)cc1)C(=O)O (stereo not given) [CIPROFIBRATE] | Not Active | Not Active | Not Active | Not Active | Not Active | Not Active | Not Active | Not Active | – | – | – | – | – | –
15 | Nc1nc(Cl)nc2c1ncn2[C@H]1C[C@H](O)[C@@H](CO)O1 [CLADRIBINE] | Not Active | Not Active | Not Active | Not Active | Not Active | Not Active | Not Active | Not Active | – | – | – | – | – | –
16 | CC[C@H]1OC(=O)[C@H](C)[C@@H](O[C@H]2C[C@@](C)(OC)[C@@H](O)[C@H](C)O2)[C@H](C)[C@@H](O[C@@H]2O[C@H](C)C[C@H](N(C)C)[C@H]2O)[C@](C)(OC)C[C@@H](C)C(=O)[C@H](C)[C@@H](O)[C@]1(C)O [CLARITHROMYCIN] | Not Active | Not Active | Not Active | Not Active | Not Active | Not Active | Not Active | Not Active | – | – | – | – | – | –

Row | SMILES | IC50 [1] | Ki [1] | IC50 ([2]; hela) | IC50 [3] | Ki [3] | IC50 [4] | IC50 [5] | Ki [5] | IC50 ([2]; read-out: IC50) [nM] | Ki [2] [nM] | IC50 ([5]; read-out: IC50) [µM] | Ki ([5]; read-out: Ki) [µM] | IC50 ([1]; read-out: IC50) [nM] | Ki ([1]; read-out: Ki) [nM]
17 | CCC[C@@H]1C[C@@H](C(=O)N[C@@H]([C@H]2O[C@H](SC)[C@H](O)[C@@H](O)[C@H]2O)[C@H](C)Cl)N(C)C1 [CLINDAMYCIN] | Not Active | Not Active | Not Active | Not Active | Not Active | Not Active | Not Active | Not Active | – | – | – | – | – | –
18 | O=C(O)c1cc(=O)c2c(OCC(O)COc3cccc4oc(C(=O)O)cc(=O)c34)cccc2o1 [CROMOLYN] | Not Active | Not Active | Not Active | Not Active | Not Active | Not Active | Not Active | Not Active | – | – | – | – | – | –
19 | O=P1(N(CCCl)CCCl)NCCCO1 (stereo not given) [CYCLOPHOSPHAMIDE ANHYDROUS] | Not Active | Not Active | Not Active | Not Active | Not Active | Not Active | Not Active | Not Active | – | – | – | – | – | –
20 | CC(=O)O[C@]1(C(C)=O)CC[C@H]2[C@@H]3C=C(Cl)C4=CC(=O)[C@@H]5C[C@@H]5[C@]4(C)[C@H]3CC[C@@]21C [CYPROTERONE ACETATE] | Not Active | Not Active | Not Active | Not Active | Not Active | Not Active | Not Active | Not Active | – | – | – | – | – | –
21 | Nc1nc(N)nc(NC2CC2)n1 [CYROMAZINE] | Not Active | Not Active | Not Active | Not Active | Not Active | Not Active | Not Active | Not Active | – | – | – | – | – | –
22 | C#C[C@]1(O)CC[C@H]2[C@@H]3CCC4=Cc5oncc5C[C@]4(C)[C@H]3CC[C@@]21C [DANAZOL] | Not Active | Not Active | Not Active | Not Active | Not Active | Not Active | – | – | – | – | 19.6 | 12.6 | – | –
23 | CCN[C@@H](C)Cc1cccc(C(F)(F)F)c1 [DEXFENFLURAMINE] | Not Active | Not Active | Not Active | Not Active | Not Active | Not Active | Not Active | Not Active | – | – | – | – | – | –
24 | C[C@H](C(=O)O)c1cccc(C(=O)c2ccccc2)c1 [DEXKETOPROFEN] | Not Active | Not Active | Not Active | Not Active | Not Active | Not Active | Not Active | Not Active | – | – | – | – | – | –
25 | CN1C(=O)CN=C(c2ccccc2)c2cc(Cl)ccc21 [DIAZEPAM] | Not Active | Not Active | Not Active | Not Active | Not Active | Not Active | Not Active | Not Active | – | – | – | – | – | –
26 | CN1C[C@H](C(=O)N[C@]2(C)O[C@@]3(O)[C@@H]4CCCN4C(=O)[C@H](Cc4ccccc4)N3C2=O)C[C@@H]2c3cccc4[nH]cc(c34)C[C@H]21 [DIHYDROERGOTAMINE] | Not Active | Not Active | – | Not Active | Not Active | Not Active | Not Active | Not Active | 3.2 | 1.49 | – | – | – | –
27 | Cc1c(N(C)CS(=O)(=O)[O-])c(=O)n(-c2ccccc2)n1C.[Na+] [DIPYRONE SODIUM] | Not Active | Not Active | Not Active | Not Active | Not Active | Not Active | Not Active | Not Active | – | – | – | – | – | –
28 | CC(CCc1ccc(O)cc1)NCCc1ccc(O)c(O)c1 (stereo not given) [DOBUTAMINE] | – | – | Not Active | Not Active | Not Active | Not Active | Not Active | Not Active | – | – | – | – | 2600 | 1600
29 | CCn1cc(C(=O)O)c(=O)c2cc(F)c(N3CCNCC3)nc21 [ENOXACIN] | Not Active | Not Active | Not Active | Not Active | Not Active | Not Active | Not Active | Not Active | – | – | – | – | – | –
30 | CCC(=O)O[C@H]1[C@H](O[C@@H]2[C@@H](C)[C@H](O[C@H]3C[C@@](C)(OC)[C@@H](O)[C@H](C)O3)[C@@H](C)C(=O)O[C@H](CC)[C@@](C)(O)[C@H](O)[C@@H](C)C(=O)[C@H](C)C[C@@]2(C)O)O[C@H](C)C[C@@H]1N(C)C [ERYTHROMYCIN PROPIONATE] | Not Active | Not Active | Not Active | Not Active | Not Active | Not Active | Not Active | Not Active | – | – | – | – | – | –
31 | C=C(CC)C(=O)c1ccc(OCC(=O)O)c(Cl)c1Cl [ETHACRYNIC ACID] | Not Active | Not Active | Not Active | Not Active | Not Active | Not Active | Not Active | Not Active | – | – | – | – | – | –
